Experimental data published in patent US20160166569A1, “METHOD FOR TREATING SKIN THICKENING” (GALDERMA RESEARCH & DEVELOPMENT, priority 2013, published 2016).
Like-named read-outs stand apart in the source and are kept apart here.

System: UV-induced skin thickening
Details: for other skin disorders induced by UV-irradiation (low grade of erythema or flaking, white raised area on skin, wrinkling): compared to vehicle control
Method: Albino hairless SKHI-hr mice (36/sex/group) were treated for 40 weeks with UVR and brimonidine gel or vehicle according to the design in Table 11. […] Topical treatments were performed approximately one hour before UVR on Monday, Wednesday and Friday of each week and approximately one hour after UVR Tuesday and Thursday of each week.
N/N=Total number of observations/number of mice with observation

How did the “UV-induced skin thickness, statistical effect” value (0.18% (w/w) topical) turn out when `Brc1c(NC2=NCCN2)ccc2nccnc12` [brimonidine, (5-bromo-quinoxalin-6-yl)-(4,5-dihydro-1H-imidazol-2-yl)-amine] was run?
The value was “did not statistically reduce”.

What about the “incidence of skin thickening compared to the UV control group” value (0.18% (w/w) topical) of the same compound?
Its value is “observably lower”.

And the “UV-induced skin thickness, statistical effect compared to the UV control group” value (1% (w/w) topical)?
Its value is “statistically reduced”.

What about the “other skin disorders induced by UV-irradiation (low grade of erythema or flaking, white raised area on skin, wrinkling)” value (1% (w/w) topical) of the same compound?
The value was “reduced”.

And the “UV-induced skin thickness, statistical effect compared to the UV control group” value (2% (w/w) topical)?
The value was “statistically reduced”.

What about the “other skin disorders induced by UV-irradiation (low grade of erythema or flaking, white raised area on skin, wrinkling)” value (2% (w/w) topical) of the same compound?
Its value is “reduced”.

What about the “skin thickening or other skin disorders” value (mice exposed to UV radiation, summary statement) of the same compound?
Its value is “significant reduction”.

And the UV-induced skin thickening (topical application at 0.18%, 1% and 2% (w/w), UVR 600 RBU/week)?
Its UV-induced skin thickening is “dose-dependent reduction”.
